Assay results from patent US10195220B2, “Hydrogen sulphide compounds” (Aston University, priority 2013, dated 2019).

Experiments:
rat = settings: chronic administration; cited from earlier work
[1] = system: first trimester human placental explants; assay: Angiogenic factor release from first trimester placental villus explants (ELISA of conditioned medium); format: cell-based; settings: increasing concentration of PAG over 24 hours
Text: Institutional Ethics Committee approved the blood and tissue collection and written informed consent was obtained. We analysed blood samples from women with singleton pregnancies recruited in the Low- and High-Risk Clinics and Labour and Delivery Unit. All women were followed prospectively from enrolment until delivery. Human placental tissues were collected from pregnancies complicated by preeclampsia and uncomplicated pregnancies delivered by elective Caesarean. Samples of placental tissue were processed for RNA extraction and maternal plasma from the same patients (n=14 PE and n=14 control) were used for analysis. From another set of patients placenta (n=5 PE and n=5 control) was collected for the immunohistochemical study. Preeclampsia was defined as blood pressure >140/90 mm Hg on at least 2 consecutive measurements and maternal proteinuria of at least 300 mg/24 h. First trimester placental tissues (6-9 weeks gestational age) were retrieved from normal pregnancies that had undergone elective termination. Villus explants were prepared as described previously.^29 Briefly, human placental villus explants were incubated with or without PAG for 24 hours, and conditioned media collected and assayed for sFlt-1 or sEng and PlGF.
(§1) Enzyme-linked immunosorbent assay (ELISA) kits for human and murine soluble Flt-1, soluble endoglin and PlGF were obtained from R&D Systems and performed according to the manufacturer's specifications.
Angiogenic factors produced by placenta are important in regulating placental vascular development.^33 Imbalance of pro- and anti-angiogenic factors generated by the placenta^29 may account for the widespread maternal endothelial dysfunction in preeclampsia.^34 To investigate whether reduced levels of CSE has any effect on the production of placental angiogenic factor production, sFlt-1, sEng, and PlGF levels were measured in conditioned medium from first trimester human placental explants in the presence of increasing concentration of CSE inhibitor PAG over 24 hours.

HTR-8/SVneo cells = assay: Trophoblast cell invasion assay (Matrigel-coated transwell); format: cell-based, human; settings: PAG 50 μM, 24 h, p<0.01, n=3
Procedure: The human extravillus trophoblast (EVT) cell line HTR-8/SVneo was a kind gift from Professor Charles H. Graham, Queen's University, Kingston, Ontario, Canada. The invasion assay was performed as described previously, with modification.30 Briefly, HTR-8/SVneo (50,000) cells treated with or without PAG were placed in the upper chamber of Matrigel-coated (1 mg/ml) transwell inserts (8 μm pore, Falcon, BD, UK) and housed in a 24-well plate. The cells were allowed to invade through the reconstituted extracellular matrix for 24 h in the presence or absence of 50 µM PAG (n=3). Trophoblast cells located on the under-surface of the transwell membrane were fixed with ice-cold methanol and stained with hematoxylin, and brightfield images were obtained with Nikon inverted microscope and Image Pro Plus image analysis software (Media Cybernetics). Transwell migration assays of HTR-8/SVneo cells in the presence of 50 µM of PAG were performed as described in Methods. (A) Migrated HTR-8/SVneo were stained with hematoxylin, and brightfield images were captured. (B) Cell numbers were counted, and results are expressed as a percentage of the control (n=3).

pregnant C57Bl6/J mice = assay: CSE inhibition in pregnant mice (PAG, with or without GYY4137); format: in vivo
Procedure: Eight to ten week old C57/black6 mice were mated. The first day of pregnancy (E0.5) was defined by the presence of a vaginal plug the following morning. Pregnant mice were randomly assigned into four groups: (i) saline (vehicle control), (ii) 25 mg/kg DL-propargylglycine (PAG; Sigma, Poole, U.K.), (iii) 50 mg/kg group PAG and (iv) 50 mg/kg
PAG with 0.25 mg/kg of slow-releasing H2S donor, GYY4137(Sigma). Mice were injected intraperitoneally (i.p.) with saline or PAG from E8.5. Blood pressure was measured by tail cuff-plethysmography. Mice were trained for measurement on alternate days from E4.5. Alternatively, mice were anesthetized by Ketamine/Xylazine cocktail. The carotid artery was isolated and cannulated with a 3-Fr high-fidelity microtip catheter connected to a pressure transducer (Millar Instruments, Houston, Tex., USA). Blood pressure was recorded and averaged over a 10-minute period. On E17.5, after blood pressure measurement and blood sample collection the animals were sacrificed and kidney, liver, and placenta were collected. The un-absorbed fetuses and placentas were counted and weighed.
Kidney, liver, and placenta were immersion fixed in 4% paraformaldehyde for 24 hours and processed to paraffin. A series of 5-μm sections were cut and processed for hematoxylin & eosin (H&E) staining.
as §1
Serial 3-5-μm sections of formalin-fixed, paraffin-embedded human and murine placental tissue were prepared for immunohistochemistry as previously described.^29 Biotin-labelled isolectin B4, anti-CSE (5 mg/ml) and isotype control were used. The staining was analyzed using a Nikon inverted microscope and an Image Pro Plus image analysis software (Media Cybernetics).
Citrated blood was obtained from women with uncomplicated pregnancies (n=14) and preeclampsia (n=14) and also from pregnant mice before termination of pregnancy. H2S levels were measured as described previously with modification.^32 Briefly, 75 μl plasma was mixed with 250 μl of 1% (w/v) zinc acetate and 425 μl water, followed by […] 50% trichloroacetic acid to remove protein. Then 133 μl 20 mM N-dimethyl-p-phenylenediamine sulphate in 7.2 mM HCl and 133 μl 30 μM FeCl3 in 1.2 mM HCl were added to the mixture. After 10 min incubation at room temperature, reaction mixtures were pelleted by centrifugation at 10,000 g (2 minutes). The absorbance of the resulting solution was measured at 670 nm with a spectrophotometer in a 96-well plate. The concentration of H2S in the solution was calculated against a calibration curve of sodium hydrogen sulfide.
Three groups (5-8/group) of pregnant C57Bl6/J mice were treated daily with vehicle or 25 mg/kg PAG or 50 mg/kg PAG from E8.5 to E16.5. After 8 days of treatment, plasma was pooled from all animals in each treatment group, and pooled H2S levels were measured. […] The labyrinth zone consists of cells of trophoblast and mesodermal origin that together undergo branching morphogenesis, resulting in a large surface area for nutrient and gas exchange between the mother and fetus. The maternal blood space is lined by trophoblast. During placental development, this space becomes progressively more finely divided.^37, 38 Using isolectin B4 to highlight the fetal endothelial cell,^39 we compared the anatomical features of the labyrinth zone in vehicle and 50 mg/kg PAG-treated mice.

HUVEC = settings: preeclamptic plasma, 100 mM NaHS
Procedure: The spontaneous formation of capillary-like structures by HUVECs on growth factor-reduced Matrigel (Becton Dickinson, Bedford, Mass.), was used to assess angiogenic potential. HUVECs were treated with plasma samples collected from pregnancies complicated by preeclampsia and uncomplicated pregnancies with or without H2S donor (NaHS) and incubated at 37° C. for 24 hours. Ninety-six well plates were coated with Matrigel (10 mg/ml) according to the manufacturer's instructions. HUVECs (1×10^4 cells/well) were then seeded on Matrigel-coated plates.

[2] = GYY4137 0.25 mg/kg with 50 mg/kg PAG
[3] = GYY4137 in mice treated with 50 mg/kg PAG

Compound: C#CCC(N)C(=O)O (racemic) [PAG, DL-propargylglycine]
- blood pressure (rat): elevated
- PlGF production [1]: significantly reduced
- sEng levels in conditioned medium [1]: remained unchanged
- sFlt-1 levels in conditioned medium [1]: remained unchanged
- cell invasion compared with vehicle control (HTR-8/SVneo cells): significant reduction
- fetal vasculature of the placenta (isolectin B4) (pregnant C57Bl6/J mice; 50 mg/kg PAG): irregular branching
- plasma levels of sEng (pregnant C57Bl6/J mice; 50 mg/kg PAG alone): induced
- plasma levels of sFlt-1 (pregnant C57Bl6/J mice; 50 mg/kg PAG alone): induced
- maternal blood space in the labyrinth zone, versus vehicle controls (pregnant C57Bl6/J mice; 50 mg/kg PAG, blinded histology of placental sections): appeared larger
- circulating H2S levels (pregnant C57Bl6/J mice; 25 or 50 mg/kg PAG i.p. daily E8.5 to E16.5, pooled plasma): dose-dependent decrease
- proteinuria (renal pathological changes) (pregnant C57Bl6/J mice; PAG treated animals): not noted
- circulating liver enzyme aspartate transaminase (AST), liver damage (pregnant C57Bl6/J mice; PAG-treated animals): increased level
- mean blood pressure (pregnant C57Bl6/J mice; high dose PAG (50 mg/kg), vehicle control 64.74±2.04): 74.40±4.61
- reduction of plasma H2S levels (pregnant C57Bl6/J mice; higher dose PAG (50 mg/kg), after 8 days of treatment, pooled plasma): approximately 50%
- fetal weight (pregnant C57Bl6/J mice; higher dose of PAG): significantly decreased

Compound: C1COCCN1.COc1ccc(P(=S)(S)N2CCOCC2)cc1 (centres unmarked) [GYY4137, morpholin-4-ium 4 methoxy phenyl(morpholino)phosphinodithiolate]
- all the changes of PAG-treated pregnant mice (blood pressure, AST) (pregnant C57Bl6/J mice; [2]): abrogated
- fetal growth compromised by the CSE inhibitor (pregnant C57Bl6/J mice; [2]): restored
- plasma levels of sEng induced by CSE inhibition (pregnant C57Bl6/J mice; [3]): inhibited
- plasma levels of sFlt-1 induced by CSE inhibition (pregnant C57Bl6/J mice; [3]): inhibited
- blood pressure compromised by PAG-treatment (pregnant C57Bl6/J mice; GYY4137 with PAG): rescued
- liver function compromised by PAG-treatment (pregnant C57Bl6/J mice; GYY4137 with PAG): rescued
- placental vascular defect due to inhibition of CSE activity (pregnant C57Bl6/J mice; GYY4137 with PAG 50 mg/kg): restored

Compound: [Na+].[SH-] [NaHS, sodium hydrogen sulfide]
- ability of HUVECs to form tube-like structure (HUVEC): partially restored
